Patent publication US8987471B2, “Substituted dihydropyrazoles as sphingosine receptor modulators” (Allergan, Inc., priority 2013, dated 2015)

Molecular target: T1, human S1P1 receptor (Homo sapiens, UniProt P21453)
T1 construct: expressed in transfected cells; membranes used
Test: GTP γ35S binding assay for S1P1 activity
Type: biochemical
Settings: membranes of cells stably expressing the S1P1 receptor, test concentrations 0.08 to 5,000 nM
Experimental: Compounds of the invention were tested for S1P1 activity using the GTP γ^35S binding assay. These compounds may be assessed for their ability to activate or block activation of the human S1P1 receptor in cells stably expressing the S1P1 receptor.
GTP γ^355 binding was measured in the medium containing (mM) HEPES 25, pH 7.4, MgCl2 10, NaCl 100, dithiothreitol 0.5, digitonin 0.003%, 0.2 nM GTP γ^355, and 5 μg membrane protein in a volume of 150 μl. Test compounds were included in the concentration range from 0.08 to 5,000 nM unless indicated otherwise. Membranes were incubated with 100 μM 5′adenylylimidodiphosphate for 30 min, and subsequently with 10 μM GDP for 10 min on ice. Drug solutions and membrane were mixed, and then reactions were initiated by adding GTP γ^355 and continued for 30 min at 25° C. Reaction mixtures were filtered over Whatman GF/B filters under vacuum, and washed three times with 3 mL of ice-cold buffer (HEPES 25, pH 7.4, MgCl2 10 and NaCl 100). Filters were dried and mixed with scintillant, and counted for ^35S activity using a β-counter. Agonist-induced GTP γ^35S binding was obtained by subtracting that in the absence of agonist. Binding data were analyzed using a non-linear regression method. In case of antagonist assay, the reaction mixture contained 10 nM S1P in the presence of test antagonist at concentrations ranging from 0.08 to 5000 nM.

T1 sequence (P21453 whole entry): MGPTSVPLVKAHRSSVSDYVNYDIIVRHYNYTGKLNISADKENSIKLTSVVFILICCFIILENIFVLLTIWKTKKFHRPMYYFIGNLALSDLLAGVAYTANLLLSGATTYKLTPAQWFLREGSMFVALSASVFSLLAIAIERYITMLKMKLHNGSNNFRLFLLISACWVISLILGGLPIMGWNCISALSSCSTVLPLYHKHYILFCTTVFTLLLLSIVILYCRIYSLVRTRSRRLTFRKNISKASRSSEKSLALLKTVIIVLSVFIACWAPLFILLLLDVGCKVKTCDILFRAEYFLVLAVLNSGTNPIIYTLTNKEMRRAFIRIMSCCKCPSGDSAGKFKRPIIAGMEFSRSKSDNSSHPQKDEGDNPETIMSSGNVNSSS

EC50: 57 nM
Structure (SMILES): CCCN1N=C(COc2ccc(CNCCCP(=O)(O)O)cc2C)CC1c1ccccc1 (stereo not shown) [Compound 1, [3-({3-Methyl-4-[(5-phenyl-1-propyl-4,5-dihydro-1H-pyrazol-3-yl)methoxy]benzyl}amino)propyl]phosphonic acid]
